Data published in patent publication US4621089A, “Pyrazolopyridine derivatives and their use in treating inflammation and allergic conditions” (Beecham Group p.l.c., priority 1984, dated 1986).

Key:
cantharidin mouse ear = assay: Mouse Cantharidin Screen (topical anti-inflammatory activity, mouse ear); type: in vivo; conditions: ears weighed 24 h after cantharidin
Protocol: Compounds were tested for topical anti-inflammatory activity in a cantharidin mouse ear screen, modified from Swinge et al [Swingle, K. F., Reiter, M. J. and Schwartzmiller, D. H., Arch. Int. Pharmacodyn., (1981), 254, 168-176].
25 μg cantharidin (in 10 μl THF/MeOH) was applied to both ears. Compound, in the same solvent, was applied at the same time, to the left ear only. Ears were weight 24 h after cantharidin application. Percentage inhibition of the acute inflammatory swelling refers to the increase in weight of left ears (cantharidin plug compound) compared with solvent-treated negative controls, as a proportion of the increase in weight of right ears (cantharidin alone) over similar controls.

[1] = tested on: mouse sensitised to oxazolone; assay: Mouse Oxazolone Screen (topical anti-inflammatory activity); type: in vivo; conditions: 500 μg/ear topical, ear weights 24 h after oxazolone challenge
Protocol: Compounds were tested for topical anti-inflammatory activity in a screen using the mouse sensitised to oxazolone, by a method modified from that of Dietrich and Hess [Dietrich, F. M., and Hess, R., Int. Arch. Allergy, (1970), 38, 246-259].
Mice were sensitised with oxazolone (2 mg in 20 μl ethanol) on a shaved area of the abdomen. Five days later, the animals recieved 10 μl THF/MeOH (1:1 v/v) on the right ear, and the test compound in the same solvent on the left ear. One hour later, the animals were challenged with 100 μg oxazolone in 10 μl acetone on each ear. Ear weights were measured 24 h later. Percentage inhibition of the inflammatory swelling refers to the increase in weight of left ears (oxazolone plus compound) compared with solvent-treated negative controls, as a proportion of the increase in weight of right ears (oxazolone alone) over similar controls.

mice = conditions: J. Heterocycl. Chem. 1971, 8(6), 1035-7; cited from earlier work
[2] = tested on: 5-Lipoxygenase enzyme from RBL-1 cells; assay: RBL-1 5-Lipoxygenase Screen; type: biochemical; conditions: 20 μM compound, 10,000 g supernatant, 6.3 μm arachidonic acid, 29° C.
Protocol: 5-Lipoxygenase enzyme was prepared as a 10,000 g supernatant from RBL-1 cells by the method of Jakschik [Jakschik, B. A., Sun. F. F., Lee, L. M. and Steinhoff, M. M., 1980, Biochem. Biophys. Res. Comm. 95, 103]. The 10,000 g supernatant was diluted with homogenization buffer to the equivalent of 1.5-2.5×10^7 cells ml^-1 and made 2 mM with respect to CaCl2. Aliquots of 0.5 ml were then dispensed into tubes, and incubated at 29° C. with 5 γl ethanol or compound in ethanol at the desired concentration for 2 min. Then [1-^14 C] arachidonic acid was added in buffer to give a final concentration of 6.3 μm and 0.2 μCi per incubation, and the reaction continued at 29° C. for 2 min. The reaction was terminated by adding 1 ml of acetone and cooling on ice, 0.5 ml of ice-cold saline and 10 μl of 2N formic acid were added, and the mixture was extracted with 2×2 ml of chloroform. The extract was stored under N2 at -20° C. until analysis by chromatography. Activity was measured as the percentage of total radioactivity found in 5-HETE and 5,12-diHETE, and inhibition calculated as the decrease in formation of the sum of these two species in compound-treated incubates relative to control incubates.

## C=CCNc1c(C(=O)OCC)cnc2cn[nH]c12 [Example 2, Ethyl 7-Allylamino-1H-pyrazolo[4,3-b]-pyridine-6-carboxylate]
Cantharidin mouse ear; 500 μg/ear topical
  inhibition of the acute inflammatory swelling: 20%

## CCOC(=O)c1cnc2cn[nH]c2c1Nc1ccccc1 [Example 1, Ethyl 7-anilino-1H-pyrazolo[4,3-b]pyridine-6-carboxylate]
[1]
  inhibition of the inflammatory swelling: 24%

## CC(=O)N(C(C)=O)c1cc(C)nc2c(C)n[nH]c12 [compound wherein R is NAc2]
mice
  CNS antidepressant activity: CNS antidepressant activity

## CCCCNc1c(C(=O)OCC)cnc2cn[nH]c12 [Example 6, Ethyl 7-n-Butylamino-1H-pyrazolo[4,3-b]pyridine-6-carbosylate]
Cantharidin mouse ear; 200 μg/ear topical
  inhibition of the acute inflammatory swelling: 42%
[2]
  inhibition of formation of 5-HETE and 5,12-diHETE: 78%
